Where two headings read alike, the source gives them in different places.
Molecular target: RpedOBP38 (Riptortus pedestris, UniProt A0A2Z4HQ26)
Test: Fluorescence competitive binding assay (1-NPN displacement)
Settings: for IC50: 2 μM recombinant RpedOBP38 and 1-NPN, PBS pH 7.4, three replicates
Description: Recombinant RpedOBP38 binding to putative chemical ligands was characterized with a microplate reader (BioTek Synergy H1, United States). Fluorescence intensity values at the excitation wavelength of 337 nm and a maximum fluorescence emission wavelength of 450 nm were plotted against the free concentration of ligand for the measurement of dissociation constants, selecting candidate ligands from among 36 volatile compounds that included 11 green leaf volatiles ([Chen et al., 2018]; [Guo and Wang, 2019]; [Cheng et al., 2020]; [Hong et al., 2022]; [Tang et al., 2023]; [Zhu et al., 2023]), 11 soybean volatiles ([Wang et al., 2019a]; [Zhu et al., 2022]), 10 repellent activity volatiles ([Zhang et al., 2013]; [Zhang et al., 2014]), and 4 aggregation pheromone compounds ([Leal et al., 1995]; [Yasuda et al., 2007]). HPLC-grade methanol was used for the dissolution of the probe N-phenyl-1-naphthylamine (1-NPN) and all ligands. The ability of RpedOBP38 to bind 1-NPN was assessed by using 10 mM PBS (pH 7.4) to prepare a 2 μM purified protein solution, titrating with 1 mM 1-NPN in methanol to prepare final concentrations from 2–20 μM. RpedOBP38 binding to each ligand was evaluated in a solution consisting of 2 μM purified protein and 1-NPN, followed by titration through the addition of ligands until no further decrease in the fluorescence intensity was observed. Ligands were independently replicated three times, and dissociation constants for each ligand were measured as follows: Ki = [IC50]/(1 + [1-NPN]/K1-NPN), where IC50 denotes the ligand concentration when the fluorescence intensity is half of the initial value [1-NPN] is the free 1-NPN concentration, and K1-NPN is the dissociation constant for the RpedOBP38/1-NPN complex ([Campanacci et al., 2001]).

[1] = Ki = [IC50]/(1 + [1-NPN]/K1-NPN), 2 μM protein and 1-NPN, Ki > 40 considered weak binding
[2] = values as quoted in running text

RpedOBP38, sequence (A0A2Z4HQ26 entry or part of it): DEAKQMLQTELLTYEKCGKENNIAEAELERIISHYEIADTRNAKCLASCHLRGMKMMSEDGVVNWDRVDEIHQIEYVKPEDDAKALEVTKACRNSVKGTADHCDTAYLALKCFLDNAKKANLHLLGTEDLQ

Compound	IC50	Ki [1]	Ki	Ki [2]
CC1=CCC2CC1C2(C)C (stereo not drawn) [(−)-α-pinene]	> 40 µM	> 40 µM		
CC1=CC[C@@](O)(C(C)C)CC1 [(−) -4-terpineol]	> 40 µM	> 40 µM		
CC1=CC[C@](O)(C(C)C)CC1 [(+) -4-terpineol]	18.7 ± 0.428 µM		14 ± 0.321 µM	14 µM
C=C(C)C1CC=C(C)C(=O)C1 (single isomer, unassigned; (-)) [(−)-carvone]	36.2 ± 5.17 µM		27.2 ± 3.88 µM	27.2 µM
C=C(C)[C@H]1CC=C(C)C(=O)C1 [(+)-carvone]	> 40 µM	> 40 µM		
CCCCCCCCCCCCCCOC(=O)C(C)C [myristyl isobutyrate]	> 40 µM	> 40 µM		

Source: article PMC11743672, “Characterization of the ligand-binding properties of odorant-binding protein 38 from Riptortus pedestris when interacting with soybean volatiles” (Frontiers in Physiology, 2025)
